Results on 4 molecules are retold here after patent publication US20030152599A1, “Composition for external use” (Shiseido Co., Ltd., priority 1999, published 2003).

SMILES strings stand for the structures.

Test [1] relates to desmoglein. In words: Evaluation for promotion of decomposition of desmoglein (keratinous layer sheet, anti-desmoglein immunoblot). The conditions noted are these: applied to both sides of keratinous layer sheet, 37° C., humidity 75%, one week; versus glycolic acid positive control. In kind it is biochemical. How it is done: To both sides of a sheet (1.5±0.2 mg) of the keratinous layer was applied 2-amino-1,3-propanediol, 2-amino-1,3-propanediol hydrochloride, or glycolic acid (5 μL for each side). Glycolic acid, which is one of AHA's, was used as a positive control. The sheet was sandwiched by stainless steel mesh sheets and allowed to stand at 37° C. with a humidity of 75% for one week. Subsequently, the sheet was transferred into a microtube, and an extracting liquid (100 μL) was added to the microtube. The mixture was maintained at 37° C. overnight to extract protein from the mixture. The extract was subjected to electrophoresis by use of […], and the gel was transferred to a PVDF membrane. An anti-desmoglein antibody and an alkaline-phosphatase-labeled anti-IgG sequentially reacted with the […], and the resultant gel was colored with alkaline phosphatase. The image of bands formed on the membrane was captured by an image-scanner, and was analyzed, to obtain the amount of desmoglein. The test was performed twice, and an average value of the amount was calculated. The average values of samples were compared.
The effect of 2-amino-2-methyl-1,3-propanediol and its hydrochloride was investigated in accordance with the same method.
Background: In western blotting, separated proteins are transferred to a membrane and probed.

The subject of test [2] is keratinous layer. In words: Turnover rate of the keratinous layer (decrease in fluorescence from the skin surface). In kind it is in vivo, human (middle-aged subjects). Particulars: 1% aqueous solution, inside of the forearm, three times per day for four days, measured on the fifth day. How it is done:
(§1) The effect of 2-amino-1,3-propanediol and 2-amino-1,3-propanediol hydrochloride on mitigation of decrease in turnover rate of the keratinous layer induced by aging was investigated in four middle-aged subjects. The turnover rate, water content of the keratinous layer, and elasticity of the skin were evaluated. 1% Aqueous solutions of 2-amino-1,3-propanediol and its hydrochloride were employed as the representative compositions of the present invention. A 1% aqueous solution of glycolic acid—which is one type of AHA—was employed as a comparative composition, and water (purified water) was employed as a reference.
(§2) A 1% phosphor solution (1 mL) in ethanol was added to an outer syringe (length: about 2 cm) of a 10-mL disposable injector, to bring the solution into contact with the skin for one minute (four portions on the inside of the forearm). From the next day, each sample including water was applied to the phosphor-contacted portions. Application was performed three times per day and continued for four consecutive days.
On the fifth day after the test was initiated, intensity of fluorescence from the skin surface was measured by use of a fluorescence-detector designed for this particular use. Decrease in fluorescence was employed as an index of the turnover rate of the keratinous layer. The larger the decrease in fluorescence, the greater the turnover rate.
(§3) The turnover rate, water content of keratinous layer and elasticity of the skin in case of 2-amino-2-methyl-1,3-propanediol and its hydrochloride were also investigated.

For test [3], the system named is keratinous layer. In words: Water content of the keratinous layer (electrical conductivity, Skicon-200). It is filed as in vivo, human (middle-aged subjects). Particulars: 1% aqueous solution, inside of the forearm, three times per day for four days. How it is done: as §1, §2
Water content of the keratinous layer was measured by use of an apparatus for measuring electrical conductivity (Skicon-200, product of IBS). The conductivity was employed as an index of water content. Thus, the higher the water content, the higher the electrical conductivity.
as §3

Test [4] deals with skin. In words: Elasticity of the skin (Cutometer SEM474, Ur/Uf). In kind it is in vivo, human (middle-aged subjects). Particulars: 1% aqueous solution, inside of the forearm, three times per day for four days; Ur/Uf at 300 hPa. How it is done: as §1, §2
Elasticity of the skin was measured by use of Cutometer SEM474 (product of Courage+Khazaka). The elasticity was obtained from extension (Uf) and retraction (Ur) of the skin when a negative pressure of 300 hPa was repeatedly applied to the skin by use of a probe having a diameter of 2 mm. The ratio (Ur/Uf) was employed as an index of elasticity of the skin. The higher the ratio, the higher the elasticity of the skin.
as §3

In the case of `CC(N)(CO)CO.Cl` [2-amino-2-methyl-1,3-propanediol hydrochloride], in test [1], the “effect of promoting decomposition of desmoglein” value (shortened to “effect”) is reported as “stronger effect of promoting decomposition of desmoglein than does glycolic acid”. Besides, in test [2], the “mitigation of decrease in turnover rate of the keratinous layer induced by aging” value (“mitigation of decrease” below) is recorded as “more strongly than does glycolic acid”. The “water content of the keratinous layer” value in test [3] was “more strongly than does glycolic acid”. In test [4], the “elasticity of the skin” value is “more strongly than does glycolic acid”.

In the case of `CC(N)(CO)CO` [2-amino-2-methyl-1,3-propanediol], the “effect” value in test [1] is “stronger effect of promoting decomposition of desmoglein than does glycolic acid”. The “mitigation of decrease” value in test [2] was “more strongly than does glycolic acid”. Also, the “water content of the keratinous layer” value in test [3] is reported as “more strongly than does glycolic acid”. Further, in test [4], the “elasticity of the skin” value is reported as “more strongly than does glycolic acid”.

`NC(CO)CO` [2-amino-1,3-propanediol]: the “effect” value in test [1] is recorded as “stronger effect of promoting decomposition of desmoglein than does glycolic acid”. Moreover, the “mitigation of decrease” value in test [2] was “mitigate decrease in turnover rate induced by aging”. Besides, the “water content of the keratinous layer” value in test [3] is reported as “improve water content of the keratinous layer”. The “elasticity of the skin” value in test [4] was “improve”.

Consider `Cl.NC(CO)CO` [2-amino-1,3-propanediol hydrochloride], for which the “effect” value in test [1] is “stronger effect of promoting decomposition of desmoglein than does glycolic acid”. The “mitigation of decrease” value in test [2] was “mitigate decrease in turnover rate induced by aging”. For the same molecule, in test [3], the “water content of the keratinous layer” value is given as “improve water content of the keratinous layer”. Besides, the “elasticity of the skin” value in test [4] is given as “improve”.
